Assay results from patent publication US20080207677A1, “Napthyridine Compounds As Rock Inhibitors” (GPC BIOTECH AG, priority 2004, published 2008).

Columns and labels:
[1] = biological target: T1, recombinant human ROCK2 (amino acids 1-530, aminoterminal 6×His tag) (Homo sapiens, UniProt O75116); assay: Determination of ROCK kinase activity, IMAP assay, ROCK2 human; type: biochemical; details: for IC50: in vitro kinase assay, ATP 34.8 μM; for inhibition at 10 µM: % inhibition of the protein kinase ROCK2 at a concentration of 10 μM
T1 construct: recombinant human ROCK2 (amino acids 1-530, aminoterminal 6×His tag); 6xHis (N)
T1 sequence (O75116 1-530): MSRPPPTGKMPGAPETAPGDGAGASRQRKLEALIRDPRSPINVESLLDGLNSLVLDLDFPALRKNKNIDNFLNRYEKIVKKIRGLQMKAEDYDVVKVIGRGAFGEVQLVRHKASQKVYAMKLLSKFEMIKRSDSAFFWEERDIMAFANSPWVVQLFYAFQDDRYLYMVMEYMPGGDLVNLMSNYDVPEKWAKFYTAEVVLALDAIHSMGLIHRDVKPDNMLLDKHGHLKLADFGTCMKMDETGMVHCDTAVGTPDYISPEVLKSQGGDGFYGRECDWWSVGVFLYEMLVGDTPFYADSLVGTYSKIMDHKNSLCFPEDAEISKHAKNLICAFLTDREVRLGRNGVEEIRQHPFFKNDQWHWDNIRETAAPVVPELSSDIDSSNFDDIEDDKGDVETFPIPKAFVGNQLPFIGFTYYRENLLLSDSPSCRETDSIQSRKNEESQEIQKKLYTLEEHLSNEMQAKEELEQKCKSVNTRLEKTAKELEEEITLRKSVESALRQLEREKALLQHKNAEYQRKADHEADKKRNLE
Method: (§1) Determination of ROCK Kinase Activity
(§2) IC50 values for the various compounds were determined with recombinant human ROCK1 (amino acids 1-555, aminoterminal 6×His tag) and recombinant human ROCK2 (amino acids 1-530, aminoterminal 6×His tag) under the following reaction conditions:
• 11) Add 6 μl 8/6 fold concentrated Substrate+8/6 fold concentrated ATP in 1 fold concentrated Reaction Buffer to each well of Assay Plate • 12) Add 10.8 nl 740 fold concentrated Inhibitor in 100% DMSO to each well except to C− and C+ wells using pintool • 13) Add 10.8 nl 100% DMSO to C− and C+ wells using pintool • 14) Add 2 μl Reaction Buffer to C− wells • 15) Add 2 μl 4 fold concentrated Kinase in Reaction Buffer to each well except C− wells • 16) Incubate according to Reaction Time at room temperature • 17) Add 15 μl IMAP Binding Solution to each well • 18) Incubate according to IMAP Incubation Time at room temperature • 19) Measure Fluorescence Polarization • 20) Measure Fluorescence Intensity

[2] = biological target: T2, recombinant human ROCK1 (amino acids 1-555, aminoterminal 6×His tag) (Homo sapiens, UniProt Q13464); assay: Determination of ROCK kinase activity, IMAP assay, ROCK1 human; type: biochemical; details: in vitro kinase assay, ATP 38.9 μM
T2 construct: recombinant human ROCK1 (amino acids 1-555, aminoterminal 6×His tag); 6xHis (N)
T2 sequence (Q13464 1-555): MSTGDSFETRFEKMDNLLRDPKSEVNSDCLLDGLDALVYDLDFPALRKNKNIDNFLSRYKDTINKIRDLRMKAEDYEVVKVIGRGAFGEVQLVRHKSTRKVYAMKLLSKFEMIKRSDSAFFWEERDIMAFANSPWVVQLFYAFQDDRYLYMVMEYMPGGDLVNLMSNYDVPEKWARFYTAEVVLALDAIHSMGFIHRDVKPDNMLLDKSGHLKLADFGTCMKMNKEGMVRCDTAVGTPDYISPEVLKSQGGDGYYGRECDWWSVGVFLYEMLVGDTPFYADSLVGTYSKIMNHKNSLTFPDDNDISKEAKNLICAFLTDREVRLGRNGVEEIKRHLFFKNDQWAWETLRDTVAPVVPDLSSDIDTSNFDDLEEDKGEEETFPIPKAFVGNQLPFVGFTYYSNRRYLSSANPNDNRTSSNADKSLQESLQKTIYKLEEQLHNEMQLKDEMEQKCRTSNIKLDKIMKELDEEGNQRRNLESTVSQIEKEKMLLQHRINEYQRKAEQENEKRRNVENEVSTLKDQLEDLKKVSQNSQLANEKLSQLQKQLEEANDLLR
Method: as §1, §2
• 1) Add 6 μl 8/6 fold concentrated Substrate+8/6 fold concentrated ATP in 1 fold concentrated Reaction Buffer to each well of Assay Plate • 2) Add 10.8 nl 740 fold concentrated Inhibitor in 100% DMSO to each well except to C− and C+ wells using pintool • 3) Add 10.8 nl 100% DMSO to C− and C+ wells using pintool • 4) Add 2 μl Reaction Buffer to C− wells • 5) Add 2 μl 4 fold concentrated Kinase in Reaction Buffer to each well except C− wells • 6) Incubate according to Reaction Time at room temperature • 7) Add 15 μl IMAP Binding Solution to each well • 8) Incubate according to IMAP Incubation Time at room temperature • 9) Measure Fluorescence Polarization • 10) Measure Fluorescence Intensity

| IC50 [1] [nM] | IC50 [2] [nM] | inhibition at 10 µM [1] [%] | Structure (SMILES) |
| --- | --- | --- | --- |
| 360 |  |  | C[C@@H](NC(=O)c1ccc2cnccc2n1)c1ccc(Cl)cc1 [(R)-[1,6]Naphthyridine-2-carboxylic acid 1-(4-chloro-phenyl)-ethylamide] |
| 380 | 300 |  | CCC(NC(=O)c1ccc2cnccc2n1)c1cccc(Cl)c1 (stereo not drawn) [[1,6]Naphthyridine-2-carboxylic acid 1-(3-chlorophenyl)-propylamide] |
| 1010 |  |  | CCC(NC(=O)c1ccc2cnccc2n1)c1cccs1 (stereo not drawn) [[1,6]Naphthyridine-2-carboxylic acid 1-(thiophen-2-yl)-propylamide] |
| 1330 | 1370 |  | O=C(NCc1ccc(Br)cc1)c1ccc2cnccc2n1 [Compound 3, [1,6]Naphthyridine-2-carboxylic acid 4-bromo-benzylamide] |
| 10700 |  |  | COc1ccc(C(C)NC(=O)c2ccc3cnccc3n2)cc1 (stereo not drawn) [[1,6]Naphthyridine-2-carboxylic acid 1-(4-methoxyphenyl)-ethylamide] |
| 5120 | 6040 |  | COc1ccc(CNC(=O)c2ccc3cnccc3n2)cc1 [[1,6]Naphthyridine-2-carboxylic acid 4-methoxy-benzylamide] |
| 2110 | 2050 |  | O=C(NCc1ccc(Cl)cc1)c1ccc2cnccc2n1 [[1,6]Naphthyridine-2-carboxylic acid 4-chloro-benzylamide] |
| 410 |  |  | Cc1ccc([C@@H](C)NC(=O)c2ccc3cnccc3n2)cc1 [(R)-[1,6]Naphthyridine-2-carboxylic acid 1-(4-methylphenyl)-ethylamide] |
| 160 |  |  | CC[C@@H](NC(=O)c1ccc2cnccc2n1)c1ccccc1 [(R)-[1,6]Naphthyridine-2-carboxylic acid 1-phenyl-propylamide] |
|  |  | 62 | NC(=O)C(Cc1ccccc1)NC(=O)c1ccc2cnccc2n1 (stereo not drawn) [Compound 5, [1,6]Naphthyridine-2-carboxylic acid (1-carbamoyl-2-phenyl-ethyl)-amide] |
| 5700 | 1910 |  | O=C(NCCc1ccc(Cl)cc1)c1ccc2cnccc2n1 [[1,6]Naphthyridine-2-carboxylic acid 2-(4-chloro-phenyl)-ethylamide] |
| 500 | 660 |  | CCC(NC(=O)c1ccc2cnccc2n1)c1ccccc1 (stereo not drawn) [[1,6]Naphthyridine-2-carboxylic acid 1-phenyl-propylamide] |
| 1040 | 910 | 87 | O=C(NCc1cccc(Br)c1)c1ccc2cnccc2n1 [Compound 1, [1,6]Naphthyridine-2-carboxylic acid 3-bromo-benzylamide] |
| 3830 | 4770 |  | O=C(NCc1ccccc1Cl)c1ccc2cnccc2n1 [[1,6]Naphthyridine-2-carboxylic acid 2-chloro-benzylamide] |
| 1260 | 790 |  | CCC(NC(=O)c1ccc2cnccc2n1)c1ccc(C)cc1 (stereo not drawn) [[1,6]Naphthyridine-2-carboxylic acid 1-(4-methylphenyl)-propylamide] |
|  |  | 65 | NC(=O)C(Cc1ccc(Cl)cc1)NC(=O)c1ccc2cnccc2n1 (stereo not drawn) [Compound 6, [1,6]Naphthyridine-2-carboxylic acid [1-carbamoyl-2-(4-chloro-phenyl)-ethyl]-amide] |
| 7230 | 2240 |  | O=C(NCc1ccccc1Br)c1ccc2cnccc2n1 [[1,6]Naphthyridine-2-carboxylic acid 2-bromo-benzylamide] |
| 340 | 940 |  | CC(NC(=O)c1ccc2cnccc2n1)c1ccc(F)cc1 (stereo not drawn) [[1,6]Naphthyridine-2-carboxylic acid 1-(4-fluorophenyl)-ethylamide] |
| 1910 |  |  | CC(NC(=O)c1ccc2cnccc2n1)c1ccsc1 (stereo not drawn) [[1,6]Naphthyridine-2-carboxylic acid 1-(thiophen-3-yl)-ethylamide] |

| IC50 [1] [nM] | IC50 [2] [nM] | inhibition at 10 µM [1] [%] | Structure (SMILES) |
| --- | --- | --- | --- |
| 7840 | 1970 |  | O=C(NCc1cccs1)c1ccc2cnccc2n1 [[1,6]Naphthyridine-2-carboxylic acid thiophen-2-yl-methylamide] |
|  |  | 37 | C[C@H](NC(=O)c1ccc2cnccc2n1)c1ccccc1 [Compound 8, [1,6]Naphthyridine-2-carboxylic acid ((S)-1-phenyl-ethyl)-amide] |
| 1520 | 1500 |  | O=C(NCCc1ccc(Br)cc1)c1ccc2cnccc2n1 [[1,6]Naphthyridine-2-carboxylic acid 2-(4-bromo-phenyl)-ethylamide] |
| 1870 | 1460 |  | O=C(NCc1ccc2c(c1)OCO2)c1ccc2cnccc2n1 [[1,6]Naphthyridine-2-carboxylic acid (benzo[1,3]dioxol-5-ylmethyl)-amide] |
| 2230 | 1280 |  | Cc1ccc(CNC(=O)c2ccc3cnccc3n2)cc1 [[1,6]Naphthyridine-2-carboxylic acid 4-methyl-benzylamide] |
| 7680 | 3150 |  | O=C(NCc1ccccc1)c1ccc2cnccc2n1 [[1,6]Naphthyridine-2-carboxylic acid benzylamide] |
| 5640 | 8160 |  | NC(=O)[C@H](Cc1ccccc1)NC(=O)c1ccc2cnccc2n1 [(S)-[1,6]Naphthyridine-2-carboxylic acid (1-carbamoyl-2-phenyl-ethyl)-amide] |
| 2570 | 610 |  | O=C(NCc1cccc(Cl)c1)c1ccc2cnccc2n1 [[1,6]Naphthyridine-2-carboxylic acid 3-chloro-benzylamide] |
| 480 | 1260 |  | CCC(NC(=O)c1ccc2cnccc2n1)c1ccc(Cl)cc1 (stereo not drawn) [[1,6]Naphthyridine-2-carboxylic acid 1-(4-chlorophenyl)-propylamide] |
| 880 | 2320 |  | C[C@@H](NC(=O)c1ccc2cnccc2n1)c1ccc2ccccc2c1 [(R)-[1,6]Naphthyridine-2-carboxylic acid 1-(naphth-2-yl)-ethylamide] |
| 770 | 1100 |  | CC(NC(=O)c1ccc2cnccc2n1)c1ccc(Cl)cc1 (stereo not drawn) [[1,6]Naphthyridine-2-carboxylic acid 1-(4-chlorophenyl)-ethylamide] |
| 1590 | 710 | 81 | CC(NC(=O)c1ccc2cnccc2n1)c1ccccc1 (stereo not drawn) [Compound 4, [1,6]Naphthyridine-2-carboxylic acid (1-phenyl-ethyl)-amide] |
| 3100 | 3340 |  | COc1cccc(CNC(=O)c2ccc3cnccc3n2)c1 [[1,6]Naphthyridine-2-carboxylic acid 3-methoxy-benzylamide] |
| 890 | 970 |  | CC(NC(=O)c1ccc2cnccc2n1)c1ccc(Br)cc1 (stereo not drawn) [[1,6]Naphthyridine-2-carboxylic acid 1-(4-bromo-phenyl)-ethylamide] |
| 13000 |  |  | CCOc1ccccc1CNC(=O)c1ccc2cnccc2n1 [[1,6]Naphthyridine-2-carboxylic acid 2-ethoxy-benzylamide] |
| 920 | 1130 | 88 | C[C@@H](NC(=O)c1ccc2cnccc2n1)c1ccccc1 [Compound 7, [1,6]Naphthyridine-2-carboxylic acid ((R)-1-phenyl-ethyl)-amide] |
| 2080 | 790 |  | O=C(NCc1ccccc1F)c1ccc2cnccc2n1 [Compound 2, [1,6]Naphthyridine-2-carboxylic acid 2-fluoro-benzylamide] |
| 4260 | 6830 |  | NC(=O)[C@H](Cc1ccc(O)cc1)NC(=O)c1ccc2cnccc2n1 [(S)-[1,6]Naphthyridine-2-carboxylic acid [1-carbamoyl-2-(4-hydroxy-phenyl)-ethyl]-amide] |
| 1410 | 1290 |  | Cc1ccc(C(C)NC(=O)c2ccc3cnccc3n2)cc1 (stereo not drawn) [[1,6]Naphthyridine-2-carboxylic acid 1-(4-methylphenyl)-ethylamide] |
